Data: BindingDB's records for PubMed 9694962 (Memorial Sloan-Kettering Cancer Center, 1998)
Values joined by “and” are separate entries in the source; they are usually repeats but may differ in a detail not shown here. Equal entries are not always repeated. Where a SMILES comes first, the peptide text is derived from it.

Tests used:
[1] = molecular target: Mu-type opioid receptor (Mus musculus, UniProt P42866)
[2] = molecular target: Mu-type opioid receptor (Bos taurus, UniProt P79350)
Chain of Mu-type opioid receptor (Bos taurus, UniProt P79350) (P79350 whole entry): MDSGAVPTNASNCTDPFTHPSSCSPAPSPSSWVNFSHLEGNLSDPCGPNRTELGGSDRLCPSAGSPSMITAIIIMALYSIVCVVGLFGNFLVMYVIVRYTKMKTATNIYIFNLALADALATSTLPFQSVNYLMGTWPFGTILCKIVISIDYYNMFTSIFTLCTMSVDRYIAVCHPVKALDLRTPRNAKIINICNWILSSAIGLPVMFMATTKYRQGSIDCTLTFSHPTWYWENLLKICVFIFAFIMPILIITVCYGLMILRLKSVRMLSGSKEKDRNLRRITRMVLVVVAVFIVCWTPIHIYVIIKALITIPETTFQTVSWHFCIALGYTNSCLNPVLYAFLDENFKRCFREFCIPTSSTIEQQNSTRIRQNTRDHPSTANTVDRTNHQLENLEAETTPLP

Chain of Mu-type opioid receptor (Mus musculus, UniProt P42866) (P42866 whole entry): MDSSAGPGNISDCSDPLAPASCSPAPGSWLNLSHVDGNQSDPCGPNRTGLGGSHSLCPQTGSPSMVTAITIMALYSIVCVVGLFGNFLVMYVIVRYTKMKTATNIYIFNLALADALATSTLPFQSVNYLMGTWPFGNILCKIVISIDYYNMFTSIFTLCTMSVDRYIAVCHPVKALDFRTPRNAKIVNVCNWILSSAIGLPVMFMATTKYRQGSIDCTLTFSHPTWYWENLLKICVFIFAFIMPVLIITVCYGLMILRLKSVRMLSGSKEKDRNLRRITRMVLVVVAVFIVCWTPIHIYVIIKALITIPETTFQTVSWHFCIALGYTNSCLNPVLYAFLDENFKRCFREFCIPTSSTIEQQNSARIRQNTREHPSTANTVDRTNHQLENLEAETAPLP

CSCC[C@H](NC(=O)[C@H](Cc1ccccc1)NC(=O)CNC(=O)CNC(=O)[C@@H](N)Cc1ccc(O)cc1)C(=O)N[C@@H](CCCNC(=N)N)C(=O)N[C@@H](Cc1ccccc1)C(=O)O [enkephalin-Met, Arg(6)-Phe(7)] (H-YGGFMRF-OH)
Ki [1]: 30 nM and 13.4 nM

NC(=O)[C@H](Cc1ccccc1)NC(=O)[C@H](Cc1c[nH]c2ccccc12)NC(=O)[C@@H]1CCCN1C(=O)[C@@H](N)Cc1ccc(O)cc1 [Endomorphin 1]
Ki [2]: 0.67 nM and 3.2 nM

CC(C)C[C@H](NC(=O)[C@H](Cc1ccccc1)NC(=O)CNC(=O)CNC(=O)[C@@H](N)Cc1ccc(O)cc1)C(=O)N[C@@H](CCCN=C(N)N)C(=O)N[C@@H](CCCN=C(N)N)C(=O)N[C@@H](CCC(N)=O)C(=O)N[C@@H](Cc1ccccc1)C(=O)N[C@@H](CCCCN)C(=O)N[C@H](C(=O)N[C@H](C(=O)N[C@H](C(=O)O)[C@@H](C)O)C(C)C)C(C)C [(Dynorphin)2-[2-(2-{2-[2-(2-{2-[2-Amino-3-(4-hydroxy-phenyl)-propionylamino]-acetylamino}-acetylamino)-3-phenyl-propionylamino]-4-methyl-pentanoylamino}-5-guanidino-pentanoylamino)-5-guanidino-pentanoylamino]-3-methyl-pentanoic acid]
Ki [1]: 39.8 nM and 11.4 nM

CC[C@H](C)[C@H](NC(=O)[C@H](CCCNC(=N)N)NC(=O)[C@H](CCCNC(=N)N)NC(=O)[C@H](CC(C)C)NC(=O)[C@H](Cc1ccccc1)NC(=O)CNC(=O)CNC(=O)[C@@H](N)Cc1ccc(O)cc1)C(=O)N[C@@H](CCCNC(=N)N)C(=O)N1CCC[C@H]1C(=O)N[C@@H](CCCCN)C(=O)N[C@@H](CC(C)C)C(=O)N[C@@H](CCCCN)C(=O)N[C@@H](Cc1c[nH]c2ccccc12)C(=O)N[C@@H](CC(=O)O)C(=O)N[C@@H](CC(N)=O)C(=O)N[C@@H](CCC(N)=O)C(=O)O [Dynorphin A (1-17)]
Ki [1]: 12.8 nM and 3.32 nM

CN1CCC23c4c5ccc(O)c4O[C@H]2[C@@H](OC2OC(C(=O)O)C(O)C(O)C2O)C=C[C@H]3[C@H]1C5 (some centres not stated) [Morphine 6-glucuronide]
Ki [1]: 2.35 nM and 2.47 nM

NC(=O)[C@H](Cc1ccccc1)NC(=O)[C@H](Cc1ccccc1)NC(=O)[C@@H]1CCCN1C(=O)[C@@H](N)Cc1ccc(O)cc1
Ki [2]: 0.43 nM and 4 nM

CC(C)C[C@H](NC(=O)[C@H](Cc1ccccc1)NC(=O)CNC(=O)[C@@H](CO)NC(=O)[C@@H](N)Cc1ccc(O)cc1)C(=O)N[C@H](C(=O)O)[C@@H](C)O [DSLET-OH]
Ki [1]: 20 nM and 10.8 nM

CC[C@H](C)[C@H](NC(=O)[C@H](C)NC(=O)[C@H](CC(N)=O)NC(=O)[C@H](CCCCN)NC(=O)[C@H](Cc1ccccc1)NC(=O)[C@H](CC(C)C)NC(=O)[C@@H](NC(=O)[C@@H](NC(=O)[C@H](CC(C)C)NC(=O)[C@@H]1CCCN1C(=O)[C@@H](NC(=O)[C@H](CCC(N)=O)NC(=O)[C@H](CO)NC(=O)[C@H](CCCCN)NC(=O)[C@H](CCC(=O)O)NC(=O)[C@H](CO)NC(=O)[C@@H](NC(=O)[C@H](CCSC)NC(=O)[C@H](Cc1ccccc1)NC(=O)CNC(=O)CNC(=O)[C@@H](N)Cc1ccc(O)cc1)[C@@H](C)O)[C@@H](C)O)C(C)C)[C@@H](C)O)C(=O)N[C@H](C(=O)N[C@@H](CCCCN)C(=O)N[C@@H](CC(N)=O)C(=O)N[C@@H](C)C(=O)N[C@@H](Cc1cnc[nH]1)C(=O)N[C@@H](CCCCN)C(=O)N[C@@H](CCCCN)C(=O)NCC(=O)N[C@@H](CCC(N)=O)C(=O)O)C(C)C [Beta-Endorphin] (H-YGGFMTSEKSQTPLVTLFKNAIVKNAHKKGQ-OH)
Ki [1]: 10.9 nM and 3.22 nM

C=CCN1CCC23c4c5ccc(O)c4O[C@@H]2C(=NNC(=O)c2ccccc2)CCC3(O)C1C5 (some centres not stated)
Ki [1]: 0.2 nM and 0.12 nM

COc1ccc2c3c1O[C@H]1C(=O)CC[C@@]4(O)[C@@H](C2)N(CC2CC2)CC[C@]314
Ki [1]: 20.3 nM and 21.2 nM

C=CCN1CC[C@]23CCCCC2[C@H]1Cc1ccc(O)cc13 (some centres not stated) [Levallorphan]
Ki [1]: 0.97 nM and 0.96 nM

NC(=O)CNC(=O)[C@H](Cc1c[nH]c2ccccc12)NC(=O)[C@@H]1CCCN1C(=O)[C@@H](N)Cc1ccc(O)cc1 [CAS_132632] (H-YPWG-NH2)
Ki [1]: 18 nM and 44.7 nM
